Source: patent publication US20240043860A1, “NOVEL HYDROXYPHENYLPYRUVATE DIOXYGENASE POLYPEPTIDES AND METHODS OF USE THEREOF” (Syngenta Crop Protection AG, priority 2020, published 2024)
Where “and” joins values, the source holds several entries; their conditions need not be identical. Equal values may be shown once. Read-outs that look alike come from different tables or passages of the source.

Experiments:
[1] = target: HPPD variant AVESA V201 (SEQ ID NO: 8) (Avena sativa, UniProt A0ACD5V6K6, A327R/G411A/I340E/L359M/V218I/V260A); assay type: biochemical; conditions: AVESA V201, SEQ ID NO: 8
Description: (§1) 25 ul of the overnight cultures were inoculated into fresh 96-deepwell block containing 1 ml Formedium Autoinduction Media (AIM). The AIM cultures were grown for 3h at 37° C. (900rpm) and then transferred to 20° C. overnight (900rpm) to allow protein expression. The overnight cultures were centrifuged and 500 ul of Cellytic B (Sigma Aldrich) was added to resuspend the cell pellets. The coupled HGO assay (Siehl et al, 2014) is used to generate IC50 values for the HPPD variants of interest.
(§2) E. coli BL21 (DE3) cells were transformed with a pET24a vector containing a C-terminally his-tagged Arabidopsis HGO gene, grown and induced overnight as described for the HPPD variants above. The cell pellet was resuspended in phosphate buffered saline at pH 7.4 containing 10% Glycerol, 1mm Tris[2-carboxyethyl] phosphine-HCl (TCEP) plus 30 mM Imidazole and lysed using lysozyme/benzonase. The extract was clarified by low speed centrifugation and purified in the same buffer down a 1 ml His Gravitrap column. The bound HGO was eluted in 0.25M imidazole and the fractions pooled and beaded into liquid nitrogen. All procedures apart from the centrifugation and beading steps were carried out under a nitrogen atmosphere.
(§3) The coupled HGO assay is carried out by adding 10 ul of HPPD extract to a 96-well plate and then adding 40 ul of reaction buffer (50 mM Bis Tris Propane, pH7.0, 25 mM sodium-L-ascorbate, 400μM mercaptoethanol, 50 μM Fe(II)SO4). The plates are left to incubate for 5 minutes on ice. […] 200 ul of HPP/HGO (197 μM hydroxyphenylpyruvic acid, 16 μl/ml Homogentisic Acid Oxidase in reaction buffer as described above) buffer is then added to the well and the reaction is regularly monitored (e.g. every 30 seconds-5 minutes) for absorbance at 330 nm for a given time period (e.g., for between 15-60 minutes). The data can then be used to calculate the IC50 value for each HPPD variant of interest.

[2] = target: HPPD variant AVESA V208 (SEQ ID NO: 14) (Avena sativa, UniProt A0ACD5V6K6, A327R/I340E/L359M/P271N/V218I); experiment: biochemical; assay type: biochemical
Description: as §1, §2, §3

[3] = target: HPPD variant AVESA V349 (SEQ ID NO: 47) (Avena sativa, UniProt A0ACD5V6K6, A327R/I340E/L359M/P271N/S304T/V218I); experiment: biochemical; assay type: biochemical
Description: as §1, §2, §3

[4] = system: HPPD variant AVESA V349 (SEQ ID NO: 47); experiment: biochemical; assay type: biochemical, Avena sativa
Description: as §1, §2, §3

[5] = target: HPPD variant AVESA V357 (SEQ ID NO: 53) (Avena sativa, UniProt A0ACD5V6K6, A327R/I340E/L359M/P271N/R214G/S304T/V218I); experiment: biochemical; assay type: biochemical
Description: as §1, §2, §3

[6] = system: transgenic tobacco plants expressing mutant HPPD SEQ ID NO: 122; experiment: spray test, herbicidal damage scoring; assay type: in vivo; conditions: 7 days after treatment, 100=complete death, 0=no damage, one value per event
Description: DNA sequences that encode these polypeptides (optimized for tobacco or, optionally, codon optimized according to a target crop such as soybean) were prepared synthetically. Each sequence was designed to include a 5′ fusion with TMV omega 5′ leader sequence such that they are flanked at the 5′ end with XhoI and at the 3′ end with KpnI to facilitate direct cloning into a suitable binary vector for Agrobacterium-based plant transformation.
For example, a master plate of Agrobacterium tumefaciens containing the HPPD expressing the binary vector is used to inoculate 10 ml LB (L broth) containing 100 mg/l Rifampicin plus 50 mg/l Kanamycin using a single bacterial colony. This is incubated overnight at 28° C. shaking at 200 rpm. This entire overnight culture is used to inoculate a 50 ml volume of LB containing the same antibiotics. Again this is cultured overnight at 28° C. shaking at 200 rpm. The Agrobacterium cells are pelleted by centrifuging at 3000 rpm for 15 minutes and then resuspended in MS (Murashige and Skoog) medium containing 30 g/l sucrose, pH 5.9 to an OD […]=0.6. This suspension is dispensed in 25 ml aliquots into petri dishes.
Once rooted, plantlets are transferred from agar and potted into 50% peat, 50% John Innes Soil No. 3 or, for example, MetroMix® 380 soil (Sun Gro Horticulture, Bellevue, WA) with slow-release fertilizer in 3 inch round or 4 inch square pots and left regularly watered to establish for 8-12d in the glass house. Glass house conditions are about 24-27° C. day; 18-21° C. night and approximately a 14h (or longer in UK summer) photoperiod.
About 20-30 TO events are produced for a number of HPPD variant genes.
Single copy events amongst the Ti plant lines are identified by their 3:1 segregation ratio (with respect to kanamycin and/or herbicide) and by quantitative RT-PCR. Seed from the thus selected Ti tobacco (var. Samsun) lines are sown in 3 inch diameter pots containing 50% peat and 50% John Innes Soil No. 3. […] HPPD expression levels were monitored by Western analysis.
Tables 4.1-4.9 show the herbicidal damage scoring on transgenic tobacco plants 7 days after treatment. A score of 100=complete death and 0=no damage observed.

[7] = target: HPPD variant AVESA V307 (SEQ ID NO: 35) (Avena sativa, UniProt A0ACD5V6K6, A327R/I340E/L359M/P271N/R214G/V218I/V260A); experiment: biochemical; assay type: biochemical
Description: as §1, §2, §3

[8] = AVESA V208, SEQ ID NO: 14, read-out: IC50
[9] = AVESA V349, SEQ ID NO: 47, read-out: IC50
[10] = AVESA V357, SEQ ID NO: 53, read-out: IC50

Sequence of HPPD variant AVESA V208 (SEQ ID NO: 14) (A0ACD5V6K6 entry or part of it V218I/P271N/A327R/I340E/L359M): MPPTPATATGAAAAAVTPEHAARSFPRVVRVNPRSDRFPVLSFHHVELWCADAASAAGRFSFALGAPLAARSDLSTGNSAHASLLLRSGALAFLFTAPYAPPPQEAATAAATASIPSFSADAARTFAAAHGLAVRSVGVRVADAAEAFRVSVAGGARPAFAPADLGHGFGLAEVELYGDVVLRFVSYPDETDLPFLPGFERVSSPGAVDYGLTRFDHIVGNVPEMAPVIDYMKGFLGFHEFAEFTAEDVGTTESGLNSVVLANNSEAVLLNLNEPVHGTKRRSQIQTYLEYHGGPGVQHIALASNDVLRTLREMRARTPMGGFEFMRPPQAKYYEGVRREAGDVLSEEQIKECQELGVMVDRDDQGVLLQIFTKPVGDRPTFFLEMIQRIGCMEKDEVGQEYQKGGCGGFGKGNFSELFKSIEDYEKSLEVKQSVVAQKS
Sequence of HPPD variant AVESA V357 (SEQ ID NO: 53) (A0ACD5V6K6 entry or part of it R214G/V218I/P271N/S304T/A327R/I340E/L359M): as the sequence (A0ACD5V6K6 entry or part of it V218I/P271N/A327R/I340E/L359M) above, with R214G, S304T counted along it
Sequence of HPPD variant AVESA V349 (SEQ ID NO: 47) (Avena sativa, UniProt A0ACD5V6K6, A327R/I340E/L359M/P271N/S304T/V218I) (A0ACD5V6K6 entry or part of it V218I/P271N/S304T/A327R/I340E/L359M): as the sequence (A0ACD5V6K6 entry or part of it V218I/P271N/A327R/I340E/L359M) above, with S304T counted along it
Sequence of HPPD variant AVESA V201 (SEQ ID NO: 8) (A0ACD5V6K6 entry or part of it V218I/V260A/A327R/I340E/L359M/G411A): as the sequence (A0ACD5V6K6 entry or part of it V218I/P271N/A327R/I340E/L359M) above, with V260A, N271P, G411A counted along it
Sequence of HPPD variant AVESA V307 (SEQ ID NO: 35) (A0ACD5V6K6 entry or part of it R214G/V218I/V260A/P271N/A327R/I340E/L359M): as the sequence (A0ACD5V6K6 entry or part of it V218I/P271N/A327R/I340E/L359M) above, with R214G, V260A counted along it

Molecule	IC50 [1]	IC50 [2, 8]	IC50 [3, 9]	IC50 fold improvement compared to SEQ ID NO: 122 [4]	IC50 [5, 10]	herbicidal damage scoring, Bicyclopyrone (800 g/ha) ([6]; Table 4.4, SEQ ID NO: 122)	IC50 [7]	IC50 [2]	IC50 [3]	IC50 [5]	herbicidal damage scoring, Herbicide D (2000 g/ha) ([6]; Table 4.4, SEQ ID NO: 122)	IC50 ([7]; AVESA V307, SEQ ID NO: 35, read-out: IC50)	herbicidal damage scoring, Herbicide C 100 g/ha ([6]; Table 3.1, plants expressing SEQ ID 122)	herbicidal damage scoring, Herbicide C (200 g/ha) ([6]; Table 4.4, SEQ ID NO: 122)
bicyclopyrone	> 500 µM	39.3 µM	10.2 µM	27 ×	42.1 µM	60 and 50 and 55 and 65 and 35 and 70 and 40	–	–	–	–	–	–	–	–
Cn1nnnc1NC(=O)c1ccc(C(F)(F)F)nc1-n1cncn1 [Herbicide D, N-(1-methyltetrazol-5-yl)-2-(1,2,4-triazol-1-yl)-6-(trifluoromethyl)pyridine-3-carboxamide]	–	–	–	29 ×	–	–	262 µM	182 µM	197 µM	243 µM	80 and 70 and 65 and 75 and 85 and 60	–	–	–
COc1ccc(-n2nc(C)cc(C(=O)C3C(=O)CCCC3=O)c2=O)cc1OC [Herbicide C, dioxopyritrione]	0.89 µM	> 50 µM	> 50 µM	> 200 ×	0.28 µM	–	–	–	–	–	–	< 0.19 µM	90 and 70 and 95 and 96	99 and 95 and 97 and 98
